Data reported in patent US20050197350A1, “Novel quinoline, tetrahydroquinazoline, and pyrimidine derivatives and methods of treatment related to the use thereof” (TAISHO PHARMACEUTICAL CO., LTD., priority 2003, published 2005).

Tested on: MCH receptors
Test: MCH receptor activity class (method not given)
[1] = MCH receptor, class by percent of control at 10^-7 M or IC50
[2] = class by percent of control at 10^-7 M or IC50
[3] = activity class 1-3: percent of control at 10^-7 M or IC50
[4] = class by percent of control at 10^−7 M or IC50
[5] = class 1-3 by percent of control at 10^-7 M or IC50

In the case of `CN(C)c1cc(N[C@H]2CC[C@@H](CNC(=O)c3ccc(Br)cc3)CC2)nc2ccccc12` [compound 149], the class [1] is reported as 3 (Class 3 The value of percent of control at 10^−7 M was more than 60% or the value of IC50 was more than 200 nM.).

With `COc1cc(CN[C@H]2CC[C@@H](Nc3nccc(N(C)C)n3)CC2)cc(I)c1O` [compound 1222] the class [2] was 3 (Class 3 The value of percent of control at 10^−7 M was more than 60% or the value of IC50 was more than 200 nM.).

In the case of `Cc1cc(C)c(NC(=O)N[C@H]2CC[C@@H](Nc3nc4c(c(N(C)C)n3)CCCC4)CC2)c(C)c1` [compound 1667], the class [3] is reported as 1 (Class 1: The value of percent of control at 10^−7 M was less than 40% or the value of IC50 was less than 50 nM.).

In the case of `Cc1ccc(OC(=O)N[C@H]2CC[C@@H](Nc3nccc(N(C)C)n3)CC2)cc1` [compound 1634], the class [3] is reported as 3 (Class 3 The value of percent of control at 10^−7 M was more than 60% or the value of IC50 was more than 200 nM.).

For `CN(C)c1nc(N[C@H]2CC[C@@H](NC(=O)Nc3ccc(Cl)cc3)CC2)nc2c1CCCC2` [compound 1815], the class [2] was 3 (Class 3 The value of percent of control at 10^−7 M was more than 60% or the value of IC50 was more than 200 nM.).

For `CN(C)c1nc(N[C@H]2CC[C@@H](NCc3cccc4ccccc34)CC2)nc2c1CCCC2` [compound 1361], the class [2] was 3 (Class 3 The value of percent of control at 10^−7 M was more than 60% or the value of IC50 was more than 200 nM.).

In the case of `Cc1c(Cl)cccc1NC(=O)NC[C@H]1CC[C@@H](Nc2cc(N(C)C)c3ccccc3n2)CC1` [compound 2385], the class (MCH receptor activity class 1-3 (percent of control at 10^-7 M or IC50)) is reported as 3 (Class 3 The value of percent of control at 10^−7 M was more than 60% or the value of IC50 was more than 200 nM.).

`CCc1cccc(C(=O)N[C@H]2CC[C@@H](Nc3nc(C)c(C)c(N(C)C)n3)CC2)c1` [compound 2855, N-(cis-4-{[4-(dimethylamino)-5,6-dimethylpyrimidin-2-yl]amino}cyclohexyl)-3-ethylbenzamide] was tested, and the class [4] was 2 (Class 2: The value of percent of control at 10^−7 M was from 40% to 60% or the value of IC′50 was from 50 nM to 200 nM.).

With `CN(C)c1ccnc(N[C@H]2CC[C@@H](NC(=O)c3cc([N+](=O)[O-])cn3C)CC2)n1` [compound 907, N-(cis-4-{[4-(dimethylamino)pyrimidin-2-yl]amino}cyclohexyl)-1-methyl-4-nitro-1H-pyrrole-2-carboxamide] the class [2] was 1 (Class 1: The value of percent of control at 10^−7 M was less than 40% or the value of IC50 was less than 50 nM.).

In the case of `COc1ccc(Br)cc1CNC[C@H]1CC[C@@H](Nc2nccc(N(C)C)n2)CC1` [compound 1266], the class [2] is reported as 1 (Class 1: The value of percent of control at 10^−7 M was less than 40% or the value of IC50 was less than 50 nM.).

`CN(C)c1nc(N[C@H]2CC[C@@H](NC(=O)NCc3ccc(Cl)c(Cl)c3)CC2)nc2c1CCCC2` [compound 1867] was tested, and the class [2] was 3 (Class 3 The value of percent of control at 10^−7 M was more than 60% or the value of IC50 was more than 200 nM.).

With `Cc1cc(N(C)C)nc(NC[C@H]2CC[C@@H](NC(=O)c3cccc(C(F)(F)F)c3)CC2)n1` [compound 2739] the class [4] was 3 (Class 3 The value of percent of control at 10^−7 M was more than 60% or the value of IC50 was more than 200 nM.).

For `CN(C)c1cc(N[C@H]2CC[C@@H](NC(=O)c3ccnc4ccccc34)CC2)nc2ccccc12` [compound 785], the class [2] was 3 (Class 3 The value of percent of control at 10^−7 M was more than 60% or the value of IC50 was more than 200 nM.).

With `CN(C)c1ccnc(N[C@H]2CC[C@@H](NC(=O)c3ccc(C#N)cc3)CC2)n1` [compound 295] the class [2] was 3 (Class 3 The value of percent of control at 10^−7 M was more than 60% or the value of IC50 was more than 200 nM.).

For `Cc1cnc(NC[C@H]2CC[C@@H](NC(=O)c3cccc(OC(F)(F)F)c3)CC2)nc1N(C)C` [compound 2721], the class [4] was 3 (Class 3 The value of percent of control at 10^−7 M was more than 60% or the value of IC50 was more than 200 nM.).

In the case of `CN(C)c1cc(N[C@H]2CC[C@@H](NC(=O)c3cccc(C(F)(F)F)c3F)CC2)nc2ccccc12` [compound 64], the class [1] is reported as 3 (Class 3 The value of percent of control at 10^−7 M was more than 60% or the value of IC50 was more than 200 nM.).

In the case of `Cc1cc(N(C)C)nc(N[C@H]2CC[C@@H](NC(=O)c3cncc(Br)c3)CC2)n1` [compound 2978, 5-bromo-N-(cis-4-{[4-(dimethylamino)-6-methylpyrimidin-2-yl]amino}cyclohexyl)nicotinamide], the class [4] is reported as 1 (Class 1: The value of percent of control at 10^−7 M was less than 40% or the value of IC50 was less than 50 nM.).

In the case of `CN(C)c1nc(N[C@H]2CC[C@@H](NC(=O)c3cc(F)cc(F)c3)CC2)nc2c1CCCC2` [compound 470], the class [5] is reported as 1 (Class 1: The value of percent of control at 10^−7 M was less than 40% or the value of IC50 was less than 50 nM.).

`CN(C)c1nc(N[C@H]2CC[C@@H](CNC(=O)c3cc(C(F)(F)F)ccc3F)CC2)nc2c1CCCC2` [compound 627] was tested, and the class [2] was 3 (Class 3 The value of percent of control at 10^−7 M was more than 60% or the value of IC50 was more than 200 nM.).

With `Cc1noc(C)c1NC(=S)N[C@H]1CC[C@@H](Nc2nc3c(c(N(C)C)n2)CCCC3)CC1` [compound 2085] the class [1] was 3 (Class 3 The value of percent of control at 10^−7 M was more than 60% or the value of IC50 was more than 200 nM.).

In the case of `CN(C)c1cc(N[C@H]2CC[C@@H](NC(=O)Nc3ccc4c(c3)OCCO4)CC2)nc2ccccc12` [compound 2161], the class [2] is reported as 3 (Class 3 The value of percent of control at 10^−7 M was more than 60% or the value of IC50 was more than 200 nM.).

For `COc1cc(OC)cc(C(=O)N[C@H]2CC[C@@H](Nc3cc(N(C)C)c4ccccc4n3)CC2)c1` [compound 76, N-(cis-4-{[4-(dimethylamino)quinolin-2-yl]amino}cyclohexyl)-3,5-dimethoxybenzamide], the class [1] was 3 (Class 3 The value of percent of control at 10^−7 M was more than 60% or the value of IC50 was more than 200 nM.).

With `CN(C)c1nc(N[C@H]2CC[C@@H](NC(=O)c3cccc(Cl)c3F)CC2)nc2c1CCCC2` [compound 495] the class [5] was 3 (Class 3 The value of percent of control at 10^−7 M was more than 60% or the value of IC50 was more than 200 nM.).

`CN(C)c1nc(N[C@H]2CC[C@@H](NC(=O)c3cc(-c4ccc(Cl)cc4)oc3C(F)(F)F)CC2)nc2c1CCCC2` [compound 576] was tested, and the class [5] was 3 (Class 3 The value of percent of control at 10^−7 M was more than 60% or the value of IC50 was more than 200 nM.).

With `CN(C)c1nc(N[C@H]2CC[C@@H](CNCc3ccc(N(C)C)c4ccccc34)CC2)nc2c1CCCC2` [compound 1402] the class [2] was 2 (Class 2: The value of percent of control at 10^−7 M was from 40% to 60% or the value of IC′50 was from 50 nM to 200 nM.).

In the case of `CN(C)c1nc(N[C@H]2CC[C@@H](CNC(=O)c3cccc(F)c3F)CC2)nc2c1CCCC2` [compound 663], the class [2] is reported as 3 (Class 3 The value of percent of control at 10^−7 M was more than 60% or the value of IC50 was more than 200 nM.).

With `CCC(Oc1ccccc1)C(=O)N[C@H]1CC[C@@H](Nc2nccc(N(C)C)n2)CC1` (relative stereo) [compound 266, N-(cis-4-{[4-(dimethylamino)pyrimidin-2-yl]amino}cyclohexyl)-2-phenoxybutanamide] the class [2] was 2 (Class 2: The value of percent of control at 10^−7 M was from 40% to 60% or the value of IC′50 was from 50 nM to 200 nM.).

For `Cc1cc(N(C)C)nc(N[C@H]2CC[C@@H](NCc3cccc(OC(F)(F)F)c3)CC2)n1` [compound 3005], the class [4] was 3 (Class 3 The value of percent of control at 10^−7 M was more than 60% or the value of IC50 was more than 200 nM.).
